From patent publication US7812022B2 (GlaxoSmithKline LLC, priority 2004, dated 2010)
Like-named read-outs stand apart in the source and are kept apart here.

What was measured:
ErbB2 or EGFR = biological target: T1, ErbB2 or EGFR; assay: ErbB family substrate phosphorylation enzyme assay (HTRF), Method A or Method B; format: biochemical
T1 construct: enzymes purified from a baculovirus expression system; Reagent production was conducted essentially as described in Brignola, P. S., et al, (2002) J. Biol. Chem. 277(2): 1576-1585
Summary of the method: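 Baculovirus-expressed EGFR or ErbB2 (0.8 or 10 nM in enzyme mix) phosphorylates biotinylated Peptide C with 20 µM ATP and 0.8 µM peptide (substrate-mix levels), MnCl2, pH 7.5. Reaction ran 90 min at 20 °C with EDTA stop and HTRF anti-phosphotyrosine read. Method A: enzyme added last; Method B: 1 h enzyme–compound preincubation.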

[1] = test system: BT474 and HN5 tumor cell lines; assay: Methylene blue growth inhibition assay (cellular Method A); format: cell-based, Human; conditions: 3 days, read-out: Activity (Method): growth inhibition IC50 class
Summary of the method: (§1)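 Colo205, BT474 and HN5 cells in DMEM/10% FBS (BT474 10,000, HN5 3,000 cells/well) treated next day with compound in DMEM, 0.3% final DMSO, for 3 days at 37° C. Biomass stained with methylene blue, solubilized, read at OD 620; IC50 interpolated by nonlinear regression from % inhibition versus vehicle.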

Colo205 tumor cell lines = assay: Methylene blue growth inhibition assay (cellular Method A), Colo205; format: cell-based, Human; conditions: 3 days, read-out: Activity (Method): growth inhibition IC50 class
Summary of the method: as §1

[2] = Method B: enzyme mix pre-incubated with compound 1 hour at 20° C., started with substrate mix
[3] = Method A: substrate mix added first, reaction started with enzyme mix

Compound | Activity (Method): pIC50 class against ErbB2 or EGFR (ErbB2 or EGFR; [2]) | IC50 ([1]; Homo sapiens, BT-474, 72 h) | IC50 (Colo205 tumor cell lines; Homo sapiens, COLO 205, 72 h) | Activity (Method): pIC50 class against ErbB2 or EGFR (ErbB2 or EGFR; [3]) | IC50 [1] | IC50 (Colo205 tumor cell lines)
NS(=O)(=O)c1cccc(Nc2nccc(-c3c(-c4cccc(NC(=O)c5c(F)cccc5F)c4)nn4ccccc34)n2)c1 [Example 118, N-{3-[3-(2-{[3-(aminosulfonyl)phenyl]amino}-4-pyrimidinyl)pyrazolo[1,5-a]pyridin-2-yl]phenyl}-2,6-difluorobenzamide] | +++ (B) (at least one pIC50 measurement of greater than 7 against either ErbB2 or EGFR) | < 100 nM | 100 to 1000 nM |  |  | 
NS(=O)(=O)CCc1cccc(Nc2nccc(-c3c(-c4cccc(NC(=O)c5c(F)cccc5F)c4)nn4ccccc34)n2)c1 [Example 119, N-(3-{3-[2-({3-[2-(aminosulfonyl)ethyl]phenyl}-amino)-4-pyrimidinyl]pyrazolo[1,5-a]pyridin-2-yl}phenyl)-2,6-difluorobenzamide] | +++ (B) (at least one pIC50 measurement of greater than 7 against either ErbB2 or EGFR) | < 100 nM | 100 to 1000 nM |  |  | 
COc1cc(Nc2nccc(-c3c(-c4cccc(NC(=O)c5c(F)cccc5F)c4)nn4ccccc34)n2)cc(OC)c1OC [Example 120, 2,6-Difluoro-N-{3-[3-(2-{[3,4,5-tris(methyloxy)-phenyl]amino}-4-pyrimidinyl)pyrazolo[1,5-a]pyridin-2-yl]phenyl}benzamide] | +++ (B) (at least one pIC50 measurement of greater than 7 against either ErbB2 or EGFR) | 100 to 1000 nM | 100 to 1000 nM |  |  | 
CCS(=O)(=O)c1ccc(OC)c(Nc2nccc(-c3c(-c4cccc(NC(=O)c5c(F)cccc5F)c4)nn4ccccc34)n2)c1 [Example 121, N-{3-[3-(2-{[5-(ethylsulfonyl)-2-(methyloxy)phenyl]-amino}-4-pyrimidinyl)pyrazolo[1,5-a]pyridin-2-yl]phenyl}-2,6-difluorobenzamide] |  | 100 to 1000 nM | > 1000 nM | +++ (A) (at least one pIC50 measurement of greater than 7 against either ErbB2 or EGFR) |  | 
COc1cc(CS(C)(=O)=O)ccc1Nc1nccc(-c2c(-c3cccc(NC(=O)c4c(F)cccc4F)c3)nn3ccccc23)n1 [Example 122] | +++ (B) (at least one pIC50 measurement of greater than 7 against either ErbB2 or EGFR) |  |  |  | 100 to 1000 nM | 100 to 1000 nM
CN(C)CCCOc1ccc(Nc2nccc(-c3c(-c4cccc(NC(=O)c5c(F)cccc5F)c4)nn4ccccc34)n2)cc1Cl [Example 126, N-[3-(3-{2-[(3-Chloro-4-{[3-(dimethylamino)propyl]-oxy}phenyl)amino]-4-pyrimidinyl}pyrazolo[1,5-a]pyridin-2-yl)phenyl]-2,6-difluorobenzamide] | +++ (B) (at least one pIC50 measurement of greater than 7 against either ErbB2 or EGFR) | < 100 nM | 100 to 1000 nM |  |  | 
O=C(Nc1cccc(-c2nn3ccccc3c2-c2ccnc(Nc3ccc(OCCN4CCOCC4)c(Cl)c3)n2)c1)c1c(F)cccc1F [Example 127, N-[3-(3-{2-[(3-Chloro-4-{[2-(4-morpholinyl)ethyl]-oxy}phenyl)amino]-4-pyrimidinyl}pyrazolo[1,5-a]pyridin-2-yl)phenyl]-2,6-difluorobenzamide] | +++ (B) (at least one pIC50 measurement of greater than 7 against either ErbB2 or EGFR) | < 100 nM | 100 to 1000 nM |  |  | 
CCN(CC)CCCOc1ccc(Nc2nccc(-c3c(-c4cccc(NC(=O)c5c(F)cccc5F)c4)nn4ccccc34)n2)cc1F [Example 131, N-[3-(3-{2-[(4-{[3-(Diethylamino)propyl]oxy}-3-fluorophenyl)amino]-4-pyrimidinyl}pyrazolo[1,5-a]pyridin-2-yl)phenyl]-2,6-difluorobenzamide] | +++ (B) (at least one pIC50 measurement of greater than 7 against either ErbB2 or EGFR) | < 100 nM | 100 to 1000 nM |  |  | 
CN1CCC[C@H]1COc1ccc(Nc2nccc(-c3c(-c4cccc(NC(=O)c5c(F)cccc5F)c4)nn4ccccc34)n2)cc1F [Example 132, 2,6-Difluoro-N-{3-[3-(2-{[3-fluoro-4-({[(2S)-1-methyl-2-pyrrolidinyl]methyl}oxy)phenyl]amino}-4-pyrimidinyl)pyrazolo[1,5-a]pyridin-2-yl]phenyl}benzamide] | +++ (B) (at least one pIC50 measurement of greater than 7 against either ErbB2 or EGFR) | < 100 nM | < 100 nM |  |  | 
O=C(Nc1cccc(-c2nn3ccccc3c2-c2ccnc(Nc3ccc(OCCN4CCCC4=O)c(F)c3)n2)c1)c1c(F)cccc1F [Example 133, 2,6-Difluoro-N-[3-(3-{2-[(3-fluoro-4-{[2-(2-oxo-1-pyrrolidinyl)ethyl]oxy}phenyl)amino]-4-pyrimidinyl}pyrazolo[1,5-a]pyridin-2-yl)phenyl]benzamide] | +++ (B) (at least one pIC50 measurement of greater than 7 against either ErbB2 or EGFR) | < 100 nM | 100 to 1000 nM |  |  | 
O=C(Nc1cccc(-c2nn3ccccc3c2-c2ccnc(Nc3ccc(OCCN4CCCCC4)c(F)c3)n2)c1)c1c(F)cccc1F [Example 134, 2,6-Difluoro-N-[3-(3-{2-[(3-fluoro-4-{[2-(1-piperidinyl)ethyl]oxy}phenyl)amino]-4-pyrimidinyl}pyrazolo[1,5-a]pyridin-2-yl)phenyl]benzamide] |  | < 100 nM | > 1000 nM | +++ (A) (at least one pIC50 measurement of greater than 7 against either ErbB2 or EGFR) |  | 
O=C(Nc1cccc(-c2nn3ccccc3c2-c2ccnc(Nc3cccc(OCCN4CCCC4)c3)n2)c1)c1c(F)cccc1F [Example 136, 2,6-Difluoro-N-[3-(3-{2-[(3-{[2-(1-pyrrolidinyl)ethyl]oxy}phenyl)amino]-4-pyrimidinyl}pyrazolo[1,5-a]pyridin-2-yl)phenyl]benzamide] | +++ (B) (at least one pIC50 measurement of greater than 7 against either ErbB2 or EGFR) | < 100 nM | 100 to 1000 nM |  |  | 
O=C(Nc1cccc(-c2nn3ccccc3c2-c2ccnc(Nc3ccccc3)n2)c1)c1ccc(Cl)cc1 [Example 142, 4-Chloro-N-(3-{3-[2-(phenylamino)-4-pyrimidinyl]pyrazolo[1,5-a]pyridin-2-yl}phenyl)benzamide] |  | > 1000 nM | > 1000 nM | ++ (A) (at least one pIC50 measurement greater than 6 against either ErbB2 or EGFR but no measurement greater than pIC50 of 7) |  | 
Cn1cccc1C(=O)Nc1cccc(-c2nn3ccccc3c2-c2ccnc(Nc3cccc(C#N)c3)n2)c1 [Example 150, N-{3-[3-(2-(3-Cyanophenyl)amino-4-pyrimidinyl)-pyrazolo[1,5-b]pyridin-2-yl]-phenyl}-1-methyl-1H-pyrrole-2-carboxamide] | +++ (B) (at least one pIC50 measurement of greater than 7 against either ErbB2 or EGFR) | < 100 nM | > 1000 nM |  |  | 
Cc1cccc2c(-c3ccnc(Nc4cccc(F)c4)n3)c(-c3cccc(NC(=O)c4c(F)cccc4F)c3)nn12 [Example 156, 2,6-Difluoro-N-[3-(3-{2-[(3-fluorophenyl)amino]-pyrimidin-4-yl}-7-methylpyrazolo[1,5-a]pyridin-2-yl)phenyl]benzamide] |  | 100 to 1000 nM | > 1000 nM | ++ (A) (at least one pIC50 measurement greater than 6 against either ErbB2 or EGFR but no measurement greater than pIC50 of 7) |  | 
COc1ccc(-c2nn3ccccc3c2-c2ccnc(Nc3ccc4c(c3)CNCC4)n2)cc1NC(=O)c1c(F)cccc1F [Example 159, 2,6-Difluoro-N-(2-(methyloxy)-5-{3-[2-(1,2,3,4-tetrahydro-7-isoquinolinylamino)-4-pyrimidinyl]pyrazolo[1,5-a]pyridin-2-yl}phenyl)benzamide] | + (B) (no pIC50 measurement greater than 6 against either ErbB2 or EGFR) | > 1000 nM | > 1000 nM |  |  | 
O=C(Nc1cc(-c2nn3ccccc3c2-c2ccnc(Nc3ccc4c(c3)CNCC4)n2)ccc1F)c1c(F)cccc1F [Example 160, 2,6-Difluoro-N-(2-fluoro-5-{3-[2-(1,2,3,4-tetrahydro-7-isoquinolinylamino)-4-pyrimidinyl]pyrazolo[1,5-a]pyridin-2-yl}phenyl)benzamide] | +++ (B) (at least one pIC50 measurement of greater than 7 against either ErbB2 or EGFR) | < 100 nM | < 100 nM |  |  | 
O=C(Nc1cccc(-c2nn3ccccc3c2-c2ccnc(Nc3ccc(OCCCS(=O)(=O)O)c(Cl)c3)n2)c1)c1c(F)cccc1F [Example 161, 3-{[2-Chloro-4-({4-[2-(3-{[(2,6-difluorophenyl)carbonyl]amino}-phenyl)pyrazolo[1,5-a]pyridin-3-yl]-2-pyrimidinyl}amino)phenyl]oxy}-1-propanesulfonic acid] | +++ (B) (at least one pIC50 measurement of greater than 7 against either ErbB2 or EGFR) | > 1000 nM | > 1000 nM |  |  | 
